Laboratory results published in the NIST ThermoML archive (doi:10.1016/j.fluid.2013.01.022).
Numbers after ± are expanded uncertainties.

Legend:
[1] = refractive index (Na D-line) (dimensionless); details: 298.15 K; 101.33 kPa; Liquid; Standard Abbe refractometry
[2] = 298.15 K; 101.33 kPa; Liquid; Vibrating tube method
[3] = xn = mol fraction of the nth substance listed; details: 298.15 K, 101 kPa, Liquid, Vibrating tube method
[4] = refractive index (Na D-line) (dimensionless); xn = mol fraction of the nth substance listed; details: 298.15 K, 101 kPa, Liquid, Standard Abbe refractometry

CCCCCCCCCCCCCC[P+](CCCCCC)(CCCCCC)CCCCCC.[Cl-] [trihexyl(tetradecyl)phosphonium chloride]
Details | mass density [kg/m3] | refractive index
[1] | – | 1.48175 ± 0.00039
[2] | 891.82 ± 0.24 | –

CCCCCCCCCCCCCC[P+](CCCCCC)(CCCCCC)CCCCCC.[Cl-] [trihexyl(tetradecyl)phosphonium chloride] + CCOC(C)(C)C
Details | mass density, [3] [kg/m3] | refractive index, [4]
x2 = 0.0473 | 890.24 ± 0.22 | 1.4804 ± 0.0004
x2 = 0.1037 | 888.11 ± 0.21 | 1.4788 ± 0.0004
x2 = 0.1961 | 884.09 ± 0.19 | 1.4762 ± 0.0004
x2 = 0.3076 | 878.3 ± 0.17 | 1.4727 ± 0.0004
x2 = 0.3968 | 872.72 ± 0.16 | 1.4688 ± 0.0004
x2 = 0.5075 | 864.28 ± 0.15 | 1.4624 ± 0.0004
x2 = 0.5981 | 855.37 ± 0.16 | 1.4562 ± 0.0004
x2 = 0.6992 | 841.62 ± 0.18 | 1.4463 ± 0.0004
x2 = 0.7993 | 821.34 ± 0.24 | 1.432 ± 0.0004
x2 = 0.8987 | 790.03 ± 0.31 | 1.4104 ± 0.0004
x2 = 0.9496 | 767.05 ± 0.38 | 1.3943 ± 0.0004

CC(CC(C)(C)C)CP(=O)([O-])CC(C)CC(C)(C)C.CCCCCCCCCCCCCC[P+](CCCCCC)(CCCCCC)CCCCCC + CCO
Details | mass density, [3] [kg/m3] | refractive index, [4]
x2 = 0.051 | 886.25 ± 0.22 | 1.47094 ± 0.00041
x2 = 0.1022 | 886.05 ± 0.21 | 1.47076 ± 0.00041
x2 = 0.2136 | 885.54 ± 0.18 | 1.46988 ± 0.0004
x2 = 0.305 | 885 ± 0.16 | 1.46895 ± 0.00039
x2 = 0.4024 | 884.17 ± 0.15 | 1.46802 ± 0.00039
x2 = 0.5019 | 882.93 ± 0.13 | 1.46563 ± 0.00038
x2 = 0.5976 | 881.05 ± 0.12 | 1.46367 ± 0.00038
x2 = 0.6989 | 877.74 ± 0.12 | 1.459 ± 0.00037
x2 = 0.7998 | 871 ± 0.14 | 1.45104 ± 0.00037
x2 = 0.9003 | 854.34 ± 0.19 | 1.44331 ± 0.00037
x2 = 0.9499 | 840.31 ± 0.25 | 1.43816 ± 0.00037

CCO [ethanol]
Details | mass density [kg/m3] | refractive index
[1] | – | 1.35925 ± 0.00033
[2] | 785.22 ± 0.12 | –

CC(CC(C)(C)C)CP(=O)([O-])CC(C)CC(C)(C)C.CCCCCCCCCCCCCC[P+](CCCCCC)(CCCCCC)CCCCCC + CCOC(C)(C)C
Details | mass density, [3] [kg/m3] | refractive index, [4]
x2 = 0.0425 | 886 ± 0.22 | 1.4696 ± 0.0004
x2 = 0.0954 | 885.1 ± 0.21 | 1.4691 ± 0.0004
x2 = 0.2026 | 882.46 ± 0.19 | 1.4673 ± 0.0004
x2 = 0.2904 | 879.48 ± 0.17 | 1.4653 ± 0.0004
x2 = 0.4013 | 874.66 ± 0.15 | 1.4623 ± 0.0004
x2 = 0.4971 | 869.23 ± 0.14 | 1.4587 ± 0.0004
x2 = 0.6023 | 861.11 ± 0.14 | 1.4539 ± 0.0004
x2 = 0.7002 | 850.33 ± 0.16 | 1.4464 ± 0.0004
x2 = 0.7999 | 832.96 ± 0.22 | 1.435 ± 0.0004
x2 = 0.8998 | 802.31 ± 0.32 | 1.4225 ± 0.0004
x2 = 0.9503 | 776.41 ± 0.43 | 1.4154 ± 0.0004

CC(CC(C)(C)C)CP(=O)([O-])CC(C)CC(C)(C)C.CCCCCCCCCCCCCC[P+](CCCCCC)(CCCCCC)CCCCCC
Details | mass density [kg/m3] | refractive index
[1] | – | 1.47125 ± 0.00039
[2] | 886.43 ± 0.24 | –

CCOC(C)(C)C [2-ethoxy-2-methylpropane]
Details | mass density [kg/m3] | refractive index
[1] | – | 1.37358 ± 0.00033
[2] | 735.85 ± 0.14 | –
